From patent US11053204B2, “Pyrimidinyloxy benzene derivatives as herbicides” (FMC Corporation, priority 2015, dated 2021)

Key:
Type in all cases: in vivo
[1] = tested on: Italian ryegrass (Lolium multiflorum); assay: Test A preemergence, visual injury rating
In short: (§1)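 Visual injury scored 0–100 (100 = complete control) against untreated controls about 10 days after treatment in a greenhouse. Test chemicals, formulated with surfactant in non-phytotoxic solvent, were sprayed on soil preemergence or on 2-10 cm, one- to two-leaf plants postemergence.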

[2] = tested on: barnyardgrass (Echinochloa crus-galli); assay: Test A preemergence, visual injury rating; settings: for Plant response rating, Barnyardgrass: 31 g ai/ha, 0 to 100 scale, 0 no effect, 100 complete control; for Barnyardgrass plant response rating: 125 g ai/ha, 0 to 100 scale (0 no effect, 100 complete control)
In short: as §1

[3] = tested on: giant foxtail (Setaria faberii); assay: Test A preemergence, visual injury rating
In short: as §1

kochia (Kochia scoparia) [4] = assay: Test A preemergence, visual injury rating
In short: as §1

[5] = tested on: pigweed (Amaranthus retroflexus); assay: Test A preemergence, visual injury rating
In short: as §1

[6] = tested on: ragweed (common ragweed, Ambrosia elatior); assay: Test A preemergence, visual injury rating
In short: as §1

[7] = tested on: Italian ryegrass (Lolium multiflorum); assay: Test A postemergence, visual injury rating; settings: 0 to 100 scale, 0 is no effect, 100 is complete control, approximately 10 days
In short: as §1

[8] = tested on: barnyardgrass (Echinochloa crus-galli); assay: Test A postemergence, visual injury rating; settings: 0 to 100 scale, 0 is no effect, 100 is complete control, approximately 10 days
In short: as §1

[9] = tested on: blackgrass (Alopecurus myosuroides); assay: Test A postemergence, visual injury rating; settings: 0 to 100 scale, 0 is no effect, 100 is complete control, approximately 10 days
In short: as §1

corn (Zea mays) = assay: Test A postemergence, visual injury rating; settings: 0 to 100 scale, 0 is no effect, 100 is complete control, approximately 10 days
In short: as §1

[10] = tested on: galium (catchweed bedstraw, Galium aparine); assay: Test A postemergence, visual injury rating; settings: 0 to 100 scale, 0 is no effect, 100 is complete control, approximately 10 days
In short: as §1

[11] = tested on: giant foxtail (Setaria faberii); assay: Test A postemergence, visual injury rating; settings: 0 to 100 scale, 0 is no effect, 100 is complete control, approximately 10 days
In short: as §1

kochia (Kochia scoparia) [12] = assay: Test A postemergence, visual injury rating; settings: 0 to 100 scale, 0 is no effect, 100 is complete control, approximately 10 days
In short: as §1

[13] = tested on: pigweed (Amaranthus retroflexus); assay: Test A postemergence, visual injury rating; settings: 0 to 100 scale, 0 is no effect, 100 is complete control, approximately 10 days
In short: as §1

[14] = tested on: ragweed (common ragweed, Ambrosia elatior); assay: Test A postemergence, visual injury rating; settings: 0 to 100 scale, 0 is no effect, 100 is complete control, approximately 10 days
In short: as §1

[15] = tested on: wheat (Triticum aestivum); assay: Test A postemergence, visual injury rating; settings: 0 to 100 scale, 0 is no effect, 100 is complete control, approximately 10 days
In short: as §1

[16] = tested on: barnyardgrass (Echinochloa crus-galli); assay: Test B flooded paddy test, plant response rating; settings: 250 g ai/ha; Flood; scale of 0 to 100 where 0 is no effect and 100 is complete control; 13 to 15 days
In short: (§2)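 Under a constant 3 cm flood, test compounds went directly into the paddy water. Following 13 to 15 days of greenhouse growth, treated species and controls were compared by eye.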

[17] = tested on: ducksalad (Heteranthera limosa); assay: Test B flooded paddy test, plant response rating; settings: 250 g ai/ha; Flood; scale of 0 to 100 where 0 is no effect and 100 is complete control; 13 to 15 days
In short: as §2

rice (Oryza sativa) = assay: Test B flooded paddy test, plant response rating; settings: 250 g ai/ha; Flood; scale of 0 to 100 where 0 is no effect and 100 is complete control; 13 to 15 days
In short: as §2

[18] = tested on: sedge, umbrella (small-flower umbrella sedge, Cyperus difformis); assay: Test B flooded paddy test, plant response rating; settings: 250 g ai/ha; Flood; scale of 0 to 100 where 0 is no effect and 100 is complete control; 13 to 15 days
In short: as §2

[19] = 31 g ai/ha, 0 to 100 scale, 0 no effect, 100 complete control
[20] = 125 g ai/ha, 0 to 100 scale (0 no effect, 100 complete control)

| Structure (SMILES) | Plant response rating, Ryegrass, Italian [1, 19] | Plant response rating, Ryegrass, Italian [1, 20] | Plant response rating, Barnyardgrass [2] | Barnyardgrass plant response rating [2] | Plant response rating, Foxtail, Giant [3, 19] | Plant response rating, Foxtail, Giant [3, 20] | Plant response rating, Kochia (kochia (Kochia scoparia) [4]; [19]) | Plant response rating, Kochia (kochia (Kochia scoparia) [4]; [20]) | Plant response rating, Pigweed [5, 19] | Plant response rating, Pigweed [5, 20] | Plant response rating, Ragweed [6, 19] | Plant response rating, Ragweed [6, 20] | Ryegrass, Italian plant response rating ([7]; 31 g ai/ha) | Ryegrass, Italian plant response rating ([7]; 125 g ai/ha) | Barnyardgrass plant response rating ([8]; 31 g ai/ha) | Barnyardgrass plant response rating ([8]; 125 g ai/ha) | Blackgrass plant response rating ([9]; 31 g ai/ha) | Blackgrass plant response rating ([9]; 125 g ai/ha) | Corn plant response rating (corn (Zea mays); 31 g ai/ha) | Corn plant response rating (corn (Zea mays); 125 g ai/ha) | further results |
| --- | --- | --- | --- | --- | --- | --- | --- | --- | --- | --- | --- | --- | --- | --- | --- | --- | --- | --- | --- | --- | --- |
| CC(=NOC(C)C)c1c(Cl)cccc1Oc1ncc(Cl)cn1 [Compound 104] | 0 | 0 | 0 | 30 | 0 | 40 | 0 | 0 | 0 | 40 | 0 | 0 | 0 | 0 | 0 | 0 | 0 | 20 | 0 | 10 | Galium plant response rating ([10]; 31 g ai/ha): 10; Galium plant response rating ([10]; 125 g ai/ha): 30; Foxtail, Giant plant response rating ([11]; 31 g ai/ha): 0; Foxtail, Giant plant response rating ([11]; 125 g ai/ha): 10; Kochia plant response rating (kochia (Kochia scoparia) [12]; 31 g ai/ha): 0; Kochia plant response rating (kochia (Kochia scoparia) [12]; 125 g ai/ha): 10; Pigweed plant response rating ([13]; 31 g ai/ha): 10; Pigweed plant response rating ([13]; 125 g ai/ha): 40; Ragweed plant response rating ([14]; 31 g ai/ha): 0; Ragweed plant response rating ([14]; 125 g ai/ha): 0; Wheat plant response rating ([15]; 31 g ai/ha): 0; Wheat plant response rating ([15]; 125 g ai/ha): 0; Plant response rating, Barnyardgrass [16]: 0; Plant response rating, Ducksalad [17]: 75; Plant response rating, Rice (rice (Oryza sativa)): 0; Plant response rating, Sedge, Umbrella [18]: 75 |
| CC(=NOC(C)C)c1c(Br)cccc1Oc1ncc(Cl)cn1 [Compound 105] | 0 | 0 | 0 | 30 | 0 | 20 | 0 | 0 | 0 | 20 | 0 | 0 | 0 | 0 | 0 | 0 | 0 | 10 | 0 | 0 | Galium plant response rating ([10]; 31 g ai/ha): 10; Galium plant response rating ([10]; 125 g ai/ha): 20; Foxtail, Giant plant response rating ([11]; 31 g ai/ha): 0; Foxtail, Giant plant response rating ([11]; 125 g ai/ha): 0; Kochia plant response rating (kochia (Kochia scoparia) [12]; 31 g ai/ha): 0; Kochia plant response rating (kochia (Kochia scoparia) [12]; 125 g ai/ha): 10; Pigweed plant response rating ([13]; 31 g ai/ha): 10; Pigweed plant response rating ([13]; 125 g ai/ha): 30; Ragweed plant response rating ([14]; 31 g ai/ha): 0; Ragweed plant response rating ([14]; 125 g ai/ha): 0; Wheat plant response rating ([15]; 31 g ai/ha): 0; Wheat plant response rating ([15]; 125 g ai/ha): 0; Plant response rating, Barnyardgrass [16]: 0; Plant response rating, Ducksalad [17]: 40; Plant response rating, Rice (rice (Oryza sativa)): 0; Plant response rating, Sedge, Umbrella [18]: 0 |
| C#CCOC(=O)c1c(Br)cccc1Oc1ncc(Cl)cn1 [Compound 108] | 0 | 0 | 10 | 30 | 10 | 80 | 0 | 10 | 0 | 70 | 0 | 0 | 0 | 0 | 0 | 10 | 0 | 0 | 10 | 20 | Galium plant response rating ([10]; 31 g ai/ha): 20; Galium plant response rating ([10]; 125 g ai/ha): 40; Foxtail, Giant plant response rating ([11]; 31 g ai/ha): 0; Foxtail, Giant plant response rating ([11]; 125 g ai/ha): 10; Kochia plant response rating (kochia (Kochia scoparia) [12]; 31 g ai/ha): 20; Kochia plant response rating (kochia (Kochia scoparia) [12]; 125 g ai/ha): 40; Pigweed plant response rating ([13]; 31 g ai/ha): 20; Pigweed plant response rating ([13]; 125 g ai/ha): 50; Ragweed plant response rating ([14]; 31 g ai/ha): 0; Ragweed plant response rating ([14]; 125 g ai/ha): 0; Wheat plant response rating ([15]; 31 g ai/ha): 0; Wheat plant response rating ([15]; 125 g ai/ha): 0; Plant response rating, Barnyardgrass [16]: 0; Plant response rating, Ducksalad [17]: 80; Plant response rating, Rice (rice (Oryza sativa)): 0; Plant response rating, Sedge, Umbrella [18]: 60 |
